{
  "source": "ChEMBL document CHEMBL3887007",
  "about": "“Estra-1,3,5(10),16-tetraene-3-carboxamide derivatives, processes for their preparation, pharmaceutical preparations comprising them and their use for preparing medicaments” (2016)",
  "target": "T1, Aldo-keto reductase family 1 member C3 (Homo sapiens, UniProt P42330)",
  "T1 sequence (P42330 whole entry)": "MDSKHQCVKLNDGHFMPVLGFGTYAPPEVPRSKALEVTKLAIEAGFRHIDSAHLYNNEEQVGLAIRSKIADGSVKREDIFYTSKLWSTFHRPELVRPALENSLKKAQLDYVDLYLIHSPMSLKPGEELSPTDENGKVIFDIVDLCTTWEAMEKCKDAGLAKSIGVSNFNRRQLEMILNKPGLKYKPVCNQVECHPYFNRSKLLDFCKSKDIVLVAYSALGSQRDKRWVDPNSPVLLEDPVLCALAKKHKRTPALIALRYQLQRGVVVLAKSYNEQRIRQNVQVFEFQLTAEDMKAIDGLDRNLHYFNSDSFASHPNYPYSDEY",
  "test": "Inhibitory Activity Assay: Essentially, the enzyme activity is measured by quantification of the Coumberol from Coumberone (Halim, M., Yee, D. J., and Sames, D., J. AM. CHEM. SOC. 130, 14123-14128 (2008) and Yee, D. J., Balsanek, V., Bauman, D. R., Penning, T. M., and Sames, D., Proc. Natl. Acad. Sci. USA 103, 13304-13309 (2006)). In this test, the increase of the highly fluorescent Coumberol by NADPH⿿(nicotinamide adenine dinucleotide phosphate)-dependent reduction of the non-fluorescent Coumberone by AKR1C3 can be determined.The enzyme used was recombinant human AKR1C3 (Aldo-keto reductase family 1 member C3) (GenBank Accession No. NM_003739). This was expressed in E. coli as GST (glutathione S transferase) fusion protein and purified by glutathione Sepharose affinity chromatography. The GST was removed by digestion with thrombin and subsequent size exclusion chromatography (Dufort, I., Rheault, P., Huang, X F., Soucy, P., and Luu-The, V., Endocrinology 140, 568-574 (1999)). […]",
  "note": "“And” between values parts separate entries of the source, which are not always exact repeats. Equal entries are not always repeated.",
  "data": [
    {"smiles": "C[C@]12CC[C@@H]3c4ccc(C(=O)NCC5(C(=O)O)CC5)cc4CC[C@H]3[C@@H]1CC=C2c1cncc(F)c1", "values": [
      {"measurement": "IC50", "result": "9.2 nM and 10.2 nM"}
    ]}
  ]
}
